# Where two headings read alike, the source gives them in different places.
# How the values were obtained:
# [1] = tested on: corneal neovascularization; assay: Topical AVASTIN in the scleral lens drug delivery system to treat corneal neovascularization; type: in vivo
# Text: This study using AVASTIN® off-label, topically, to treat corneal neovascularization was repeated using the scleral lens drug delivery system. […] This therapeutic effect was achieved without BAK. Instead, the expanded pre-corneal tear film of the scleral lens drug delivery system provided adequate bioavailability of the drug without exposing the cornea to BAK.
# [2] = tested on: corneal neovascularization; conditions: solution of 1% AVASTIN and 0.01% BAK, one drop, four times per day for at least thirty days; no scleral lens; cited from earlier work
substance,measurement,setting,value
bevacizumab [AVASTIN®],therapeutic effect on corneal neovascularization,"[1]; one drop of 1% AVASTIN added to expanded pre-corneal tear film of artificial tears in a scleral lens twice per day, without BAK",achieved a therapeutic effect by thirty days
same,continued benefit after initial therapeutic effect,"[1]; same regimen, the sixty days following the first thirty days",continued benefit over the subsequent sixty days
same,"regression of corneal neovascularization (clinical photos, FIG. 5)",[1]; scleral lens drug delivery system,regression of corneal neovascularization
same,therapeutic effect on corneal neovascularization,[2],Therapeutic effect was reported

# — patent publication US20080286337A1, “Method of treating a disease in an eye using a scleral lens” (Boston Foundation for Sight, priority 2007, published 2008)
